Reference: patent US10808008B2, “Aromatic-cationic peptides and uses of same” (Cornell University, priority 2012, dated 2020)
Where no end group is shown, it is not given here. [ ]: non-standard residue; d: D form.

Tests used:
cytochrome c = cytochrome c (Equus caballus, UniProt P00004); experiment: Cytochrome c reduction kinetics (absorption spectroscopy); type: biochemical; conditions: glutathione (GSH) as reducing agent; absorbance at 550 nm
Description: Increasing amounts of aromatic-cationic peptides were added to a solution of oxidized cytochrome c. The formation of reduced cytochrome c was monitored by absorbance at […]. The rate of cytochrome c reduction was determined by non-linear analysis (Prizm software).
Time-resolved UV-Visible absorption spectroscopy was used to study the electron transport process of cytochrome c in the presence of peptides. Reduced cytochrome c was monitored by absorbance at a broad-band spectral range (200-1100 nm). The absorption changes were recorded with a UV/Visible spectrophotometer (Ultrospec 3300 pro, GE) in quartz cells with path lengths of 1 or 2 mm. N-acetylcysteine (NAC) and glutathione were used as electron donors to reduce oxidized cytochrome c. The rate constant of cytochrome c reduction was estimated by adding various concentrations of peptides. The dose dependence of the peptides was correlated to the cytochrome c reduction kinetics.
Absorption spectroscopy (UltroSpec 3300 Pro; 220-1100 nm) was used to determine if SS-31 modulates cytochrome c reduction (FIG. 1). Reduction of cytochrome c with glutathione is associated with multiple shifts in the Q band (450-650 nm), with a prominent shift at 550 nm. […] Accordingly, the aromatic-cationic peptides of the present disclosure are useful for altering the structure and oxidation state of cytochrome c, and are useful for the prevention or treatment of diseases or disorders characterized by dysregulation of cytochrome c.
Reduction of cytochrome c was monitored by increase in absorbance at 550 nm. […] Similar results were obtained using N-acetylcysteine (NAC) as a reducing agent (not shown). […] Accordingly, aromatic-cationic peptides of the present disclosure are useful for the prevention or treatment of diseases or disorders characterized by dysregulation of cytochrome c and are useful for facilitating cytochrome c reduction.

[1] = test system: isolated rat kidney mitochondria; experiment: O2 consumption in isolated mitochondria; type: biochemical; conditions: 400 μM ADP
Description: (§1) Fresh mitochondria were isolated from rat kidney as described previously. Electron flux was measured by O2 consumption (Oxygraph Clark electrode) as previously described using different substrates for C1 (glutamate/malate), C2 (succinate), and C3 (TMPD/ascorbate). Assays were carried out under low substrate conditions in order to avoid saturating the enzyme reactions. ATP production in isolated mitochondria was determined kinetically using the luciferase method (Biotherma) in a 96-well luminescence plate reader (Molecular Devices). The initial maximal rate for ATP synthesis was determined over the first minute.
Oxygen consumption of isolated rat kidney mitochondria was determined using the Oxygraph (FIG. 5). Rates of respiration were measured in the presence of different concentrations of SS-31 in state 2 (400 μM ADP only), state 3 (400 μM ADP and 500 μM substrates) and state 4 (substrates only). All experiments were done in triplicate with n=4−7. […] Accordingly, aromatic-cationic peptides of the present disclosure are useful for promoting electron transfer to oxygen without uncoupling mitochondria, increasing O2 consumption, and treating diseases or conditions related to dysregulation of O2 consumption in mitochondria.
(§2) SS-20 or SS-31 was added at 100 μM concentrations to isolated mitochondria in respiration buffer containing 0.5 mM succinate (complex II substrate) and 400 μM ADP. Similar increases in O2 consumption were observed when low concentrations of complex I substrates (glutamate/malate) were used (data not shown). […] Accordingly, targeting SS-20 and SS-31 to the IMM can facilitate electron flux in the electron transport chain and improve ATP synthesis, especially under conditions of reduced substrate supply.
SS-20 or SS-31 was added at 10 μM or 100 μM concentrations to isolated mitochondria in respiration buffer containing glutamate/malate (complex I substrate), 0.5 mM succinate (complex II substrate) or 3 μM TMPD/1 mM ascorbate (direct reductant of cytochrome c). 400 μM ADP was added to initiate State 3 respiration.

isolated mitochondria = experiment: ATP synthesis in isolated mitochondria; type: biochemical, rat; conditions: mitochondria energized with low concentrations of succinate
Description: as §1
The rate of mitochondrial ATP synthesis was determined by measuring ATP in respiration buffer collected from isolated mitochondria 1 min after addition of […] (FIG. 6). ATP was assayed by HPLC. All experiments were carried out in triplicate, with n=3. […] Accordingly, aromatic-cationic peptides of the present disclosure are useful for increasing ATP synthesis in mitochondria and for treating diseases or disorder characterized by dysregulation of ATP synthesis.
as §2
Increase in electron flux in the electron transport chain can either result in increase in ATP synthesis or increase in electron leak and generation of free radicals. ATP synthesis in isolated mitochondria was assayed by HPLC. […] Accordingly, aromatic-cationic peptides of the present disclosure are useful for increasing ATP synthesis in mitochondria and for treating diseases or disorder characterized by dysregulation of ATP synthesis.

[2] = target: cytochrome c/cardiolipin complex (Equus caballus, UniProt P00004); experiment: Soret circular dichroism of cytochrome c with cardiolipin; type: biochemical; conditions: 10 μM cytochrome c, 30 μg/ml CL, 10 μM peptide; 20 mM HEPES pH 7.5, 25° C.
Sequence of cytochrome c/cardiolipin complex (P00004 2-105 limits assumed, one chain of several): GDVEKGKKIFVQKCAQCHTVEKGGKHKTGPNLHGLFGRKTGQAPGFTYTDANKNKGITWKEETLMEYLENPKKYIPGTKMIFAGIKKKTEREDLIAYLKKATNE
Description: Circular dichroism (CD) was carried out to examine the effects of the peptides on protecting the heme environment of cytochrome c from the acyl chain of CL. For heme proteins, the Soret CD spectrum is strictly correlated with the heme pocket conformation. In particular, the negative 416-420 nm Cotton effect is considered diagnostic of Fe(III)-Met80 coordination in native cytochrome c (Santucci and Ascoli, 1997). […] CD spectra were obtained using AVIV CD Spectrometer Model 410.
Changes in the Soret CD spectrum of cytochrome c (10 μM) were recorded in the absence (dotted line) and presence (dashed line) of 30 μg/ml CL, plus addition of different peptides (10 μM) (solid line) (FIG. 14). CD measurements were carried out using 20 mM HEPES, pH 7.5, at 25° C. and expressed as molar ellipticity (A) (m Deg). […] Accordingly, aromatic-cationic peptides of the present disclosure are useful for the prevention or treatment of diseases or disorders characterized by dysregulation of cardiolipin and/or cytochrome c, and/or diseases or disorders characterized by dysregulation of the cardiolipin/cytochrome c interaction. In addition, aromatic-cationic peptides of the present disclosure are useful to protect the heme environment of cytochrome c from the acyl chain of cardiolipin.
Circular Dichroism (CD) spectra were collected with an AVIA 62 DS spectrophotometer equipped with a sample temperature controller. CD spectra of the Soret region (370-450 nm) were recorded with 10-mm path length cells containing 20 mM Hepes, pH 7.4, and 10 μM cytochrome c, in the presence or absence of 30 μg/ml cardiolipin and different SS peptide analogs (SS-02, [atn]SS-02, [ald]SS-02, and SS-31). The maximum lipid concentration was kept low to avoid spectral distortions due to excessive light scattering. All measurements were done at 25° C. All spectra were corrected for background, and the final spectrum shown represents the average of at least three experiments.

[3] = target: cardiolipin-cytochrome c complex (Equus caballus, UniProt P00004); experiment: Cytochrome c reduction in the presence of cardiolipin; type: biochemical; conditions: 500 μM GSH
Sequence of cardiolipin-cytochrome c complex (P00004 2-105 limits assumed, one chain of several): as above
Description: Reduction of cytochrome c (20 μM) was induced by the addition of glutathione (500 μM) in the absence or presence of CL (100 μg/ml) (FIG. 15A). Reduction of cytochrome c was monitored by absorbance at 550 nm using a 96-well UV-VIS plate reader (Molecular Devices). Addition of CL decreased the rate of cytochrome c reduction by half.
The time course of cytochrome c reduction by ascorbate was recorded at 550 nm and 570 nm using a 96-well plate reader (Molecular Devices, Sunnyvale, Calif.). For all reactions, cytochrome c was preincubated with cardiolipin in the presence or absence of SS peptides for 1 min. […] Ascorbate (50 μM) was added to initiate the reduction of cytochrome c, and the absorbance was recorded for 5 min. The rate of reduction was calculated based on slope of the change in absorbance intensity of 550 nm over 570 nm.

[4] = Fluorescence spectroscopy of labelled peptides with cardiolipin; type: binding; conditions: 1 μM peptide; CL 5 to 50 μg/ml
Text: The peptides 2′,6′-Dmt-D-Arg-[…] (SS-19) and 2′,6′-Dmt-D-Arg-Phe-Lys-Ald-NH2 (SS-37) cationic peptides carry net positive charge at neutral pH. They are expected to associate with anionic phospholipid cardiolipin based on electrostatic interaction. The interaction of small peptides with lipid membranes can been studied using fluorescence spectroscopy (Surewicz and Epand, 1984). […] Polarity-sensitive fluorescent probes were incorporated into the peptides and fluorescence spectroscopy was used to determine if SS-19, SS-37 and SS-36 interact with CL.
The peptide 2′,6′-Dmt-D-Arg-Phe-(atn)Dap-NH2 (SS-19) contains anthraniloyl incorporated into diaminopropionic acid. Anthraniloyl derivatives fluoresce in the 410-420 nm range when excited at 320-330 nm (Hiratsuka T, 1983). The quantum yield of anthraniloyl derivatives is strongly dependent on the local environment, and can increase 5-fold going from water to 80% ethanol, together with a blue shift in the emission maxima (λ max) of <10 nm (Hiratsuka T, 1983). Fluorescence emission spectrum of SS-19 (1 μM) alone, and in the presence of increasing concentrations of CL (5 to 50 μg/ml), was monitored following excitation at 320 nm using Hitachi F-4500 fluorescence spectrophotometer.
The peptide 2′,6′-Dmt-D-Arg-Phe-Lys-Ald-NH2 (SS-37) contains an additional amino acid, aladan (Ald), which has been reported to be particularly sensitive to the polarity of its environment and it has been used to probe the electrostatic character of proteins (Cohen et al., 2002). When excited at 350 nm, λmax shifts from 542 nm in water to 409 nm in heptane, accompanied by a significant increase in quantal yield (Cohen et al., 2001). Fluorescence emission spectrum of SS-37 (1 μM) alone, and in the presence of increasing concentrations of CL, was monitored following excitation at 350 nm. Addition of CL (5 to 50 μg/ml) led to a 3-fold increase in quantal yield of SS-37 as well as a clear blue shift in λ max, from 525 nm without CL to 500 nm with 50 μg/ml CL (FIG. 11B).
The peptide 2′,6′-Dmt-D-Arg-Ald-Lys-NH2 (SS-36) contains Ald in place Phe^3 in SS-02. Fluorescence emission spectrum of SS-36 (1 μM) alone, and in the presence of increasing concentrations of CL, was monitored following excitation at 350 nm. SS-36 was the most sensitive to the addition of CL, with dramatic increase in quantal yield and blue shift observed with much lower added amounts of CL (1.25 to 5 μg/ml). The λmax shifted from 525 nm without CL to 500 nm with as little as 1.25 μg/ml CL, and quantal yield increased by more than 100-fold with the addition of 5 μg/ml of CL (FIG. 11C). […] Accordingly, aromatic-cationic peptides of the present disclosure are useful for the prevention or treatment of diseases or disorders characterized by dysregulation of cardiolipin.
Changes in the emission intensity of the [atn]SS-02 and the [ald]SS-02 were measured using a Hitachi F-4500 fluorescence spectrophotometer. The different solvents used to dissolve the various phospholipids (chloroform, methanol and ethanol) had negligible effect on the fluorescence spectrum of [atn]SS-02 and [ald]SS-02. All experiments were done in low ionic solution (deionized water) to optimize electrostatic interactions of peptides with phospholipids.
Increasing concentrations of cardiolipin (5, 10, 25, and 50 μg/mL) were added to 1 μM [atn]SS-02, and the emission intensity between 350 nm and 500 nm was measured.

[5] = target: T1, cytochrome c and cardiolipin (CL) (Equus caballus, UniProt P00004); experiment: Fluorescence quenching by cytochrome c in the presence of cardiolipin; type: binding, horse; conditions: CL 50 μg/ml
T1 construct: from tissue; host or cells: horse heart
T1 sequence (P00004 2-105 limits assumed): as the sequence (P00004 2-105 limits assumed, one chain of several) above
Description: Fluorescence emission of SS-19 (10 μM) was monitored in real time (Ex/Em=320 nm/420 nm) using Hitachi F-4500 fluorescence spectrophotometer. […] CL may potentiate the interaction between SS-19 and cytochrome c by serving as an anionic platform for the two cationic molecules.
The quenching by cytochrome c was not displaced by sequential additions of bovine serum albumin (500 μg/ml) (FIG. 13C, A+arrows).
SS-36 also contains the polarity-sensitive fluorescent amino acid aladan. […] Accordingly, aromatic-cationic peptides of the present disclosure are useful for the prevention or treatment of diseases or disorders characterized by dysregulation of cardiolipin and/or cytochrome c, and/or diseases or disorders characterized by dysregulation of the cardiolipin/cytochrome c interaction.
Interaction of SS peptides with horse heart cytochrome c in the absence or presence of free cardiolipin or cardiolipin/POPC (1:1) liposomes (prepared as described in Example 22) was examined by fluorescence quenching of [atn]SS-02 (λex/λem=320/420 nm) and [ald]SS-02 (λex/λem=360/510 nm) upon addition of cytochrome c (using a Hitachi F-4500 fluorescence spectrophotometer). The solvents used to dissolve cardiolipin and POPC had negligible effect on cytochrome c-dependent quenching of these peptides. All experiments were done in low ionic solution (deionized water) or 20 mM Hepes pH 7.4.

Sequence of cytochrome c (P00004 2-105 limits assumed): as the sequence (P00004 2-105 limits assumed, one chain of several) above

Substance: F[dR]FK-NH2 [SS-20]
- rate (kinetics) of cytochrome c reduction (cytochrome c): accelerate the kinetics of cytochrome c reduction
- O2 consumption in state 3 respiration ([1]; 10 μM or 100 μM peptide, complex I or complex II substrates or TMPD/ascorbate): increases O2 consumption in state 3 respiration
- electron flux measured by O2 consumption ([1]; 100 μM peptide, 0.5 mM succinate): promote electron flux
- rate of ATP production (isolated mitochondria): significant increase in the rate of ATP production
- protection against CL-induced disappearance of negative Cotton effect [2]: Protect the Heme Environment of Cytochrome c from the Acyl Chain of CL
- CL inhibition of cytochrome c reduction [3]: prevented CL inhibition of cytochrome c reduction

Substance: D-Arg-Tyr-Lys-Phe-NH2 ([dR]YKF-NH2; N-terminus assumed; SMILES N=C(N)NCCC[C@@H](N)C(=O)N[C@@H](Cc1ccc(O)cc1)C(=O)N[C@@H](CCCCN)C(=O)N[C@@H](Cc1ccccc1)C(N)=O) [SPI-231]
- protection against CL-induced disappearance of negative Cotton effect [2]: Protect the Heme Environment of Cytochrome c from the Acyl Chain of CL
- CL inhibition of cytochrome c reduction [3]: prevented CL inhibition of cytochrome c reduction

Substance: 2′,6′-Dmt-D-Arg-Phe-Lys-Ald-NH2 [SS-37]
- increase in quantal yield on addition of CL [4]: 3 fold
- quenching of fluorescence by cytochrome c in the presence of CL ([5]; 10 μM peptide, 2 μM cytochrome c): similarly quenched
- displacement of quenching by bovine serum albumin in the presence of CL ([5]; BSA 500 μg/ml): not displaced
